From ChEMBL document CHEMBL1201862, “PubChem BioAssay data set” (2004)
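A five-concentration, 48-hour dose response in 96-well plates underlies each endpoint, interpolated linearly between surrounding concentrations. Abbreviation: GI50, concentration required for 50% inhibition of growth.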 The source made the active and inactive calls. Cut-off read from the data, not from the text of the source: active = GI50 up to about 1.1 µM and inactive = higher.

Experiments:
Experiment in all cases: NCI tumour cell line growth inhibition, 48 h
[1] = system: M19-MEL
[2] = system: UACC-257
[3] = system: IGROV-1
[4] = system: OVCAR-8
[5] = system: HT-29
[6] = system: SF-268
[7] = system: HCT-15
[8] = system: CAKI-1
[9] = system: SK-MEL-2
[10] = system: SNB-19
[11] = system: U-251
[12] = system: CCRF-CEM
[13] = system: NCI-H226
[14] = system: RPMI-8226
[15] = system: RXF 393
[16] = system: EKVX
[17] = system: LOX IMVI
[18] = system: DU-145
[19] = system: PC-3
[20] = system: T47D

Compound	GI50 [1]	GI50 [2]	GI50 [3]	GI50 [4]	GI50 [5]	GI50 [6]	GI50 [7] [µM]	GI50 [8]	GI50 [9]	GI50 [10]	GI50 [11]	GI50 [12]	GI50 [13]	GI50 [14]	GI50 [15]	GI50 [16]	GI50 [17]	GI50 [18]	GI50 [19]	GI50 [20]
O=C1N2Cc3c4ccc5c3CN3C(=O)N6Cc7c(ccc(c7CN1C6(c1ccccc1)C23c1ccccc1)OCCOCCNCCOCCO4)OCCOCCNCCOCCO5 (stereo not given)	24.9 µM (inactive)	16.9 µM (inactive)	65.8 µM (inactive)	65 µM (inactive)	13.9 µM (inactive)	> 100 µM (inactive)	28.3	51.6 µM (inactive)	59.7 µM (inactive)	> 100 µM (inactive)	28.9 µM (inactive)	23.2 µM (inactive)	> 100 µM (inactive)	11.7 µM (inactive)	33.2 µM (inactive)	> 100 µM (inactive)	–	–	–	–
CC1(C)C(=O)C(C)(C)C1=NNC(N)=S	> 100 µM (inactive)	> 100 µM (inactive)	> 100 µM (inactive)	> 100 µM (inactive)	> 100 µM (inactive)	> 100 µM (inactive)	> 100	> 100 µM (inactive)	–	> 100 µM (inactive)	> 100 µM (inactive)	–	> 100 µM (inactive)	> 100 µM (inactive)	> 100 µM (inactive)	–	> 100 µM (inactive)	–	–	–
Cc1cccc(C)c1NC(=O)CCCC(=O)CC(=O)/C=C/c1ccccc1	> 100 µM (inactive)	> 100 µM (inactive)	> 100 µM (inactive)	> 100 µM (inactive)	> 100 µM (inactive)	> 100 µM (inactive)	> 100	> 100 µM (inactive)	> 100 µM (inactive)	> 100 µM (inactive)	> 100 µM (inactive)	> 100 µM (inactive)	–	> 100 µM (inactive)	> 100 µM (inactive)	–	> 100 µM (inactive)	–	–	–
Cc1ccc(S(=O)(=O)C(C#N)c2nc3ccccc3nc2-n2ccnc2)cc1 (stereo not given)	> 100 µM (inactive)	> 100 µM (inactive)	> 100 µM (inactive)	> 100 µM (inactive)	> 100 µM (inactive)	> 100 µM (inactive)	> 100	–	> 100 µM (inactive)	> 100 µM (inactive)	> 100 µM (inactive)	> 100 µM (inactive)	54.8 µM (inactive)	> 100 µM (inactive)	–	> 100 µM (inactive)	–	–	–	–
CCOC(=O)C(=O)Nc1c(C)cccc1CC	> 100 µM (inactive)	> 100 µM (inactive)	> 100 µM (inactive)	> 100 µM (inactive)	> 100 µM (inactive)	> 100 µM (inactive)	–	> 100 µM (inactive)	> 100 µM (inactive)	> 100 µM (inactive)	> 100 µM (inactive)	> 100 µM (inactive)	> 100 µM (inactive)	> 100 µM (inactive)	> 100 µM (inactive)	> 100 µM (inactive)	> 100 µM (inactive)	–	–	–
CNS(=O)(=O)NNS(=O)(=O)c1ccc(C)cc1	> 100 µM (inactive)	> 100 µM (inactive)	> 100 µM (inactive)	> 100 µM (inactive)	> 100 µM (inactive)	> 100 µM (inactive)	–	> 100 µM (inactive)	> 100 µM (inactive)	> 100 µM (inactive)	–	> 100 µM (inactive)	–	> 100 µM (inactive)	> 100 µM (inactive)	> 100 µM (inactive)	–	–	–	–
O=c1c2ccccc2nc2n1-c1ccccc1SC2	67.1 µM (inactive)	39.4 µM (inactive)	66.5 µM (inactive)	38 µM (inactive)	> 100 µM (inactive)	60 µM (inactive)	54.1	> 100 µM (inactive)	> 100 µM (inactive)	> 100 µM (inactive)	84.7 µM (inactive)	38.8 µM (inactive)	–	24.3 µM (inactive)	58.3 µM (inactive)	25.5 µM (inactive)	> 100 µM (inactive)	–	–	–
CCOC(=O)C1C(NC(N)=O)N(Cc2ccccc2)C(=O)N1Cc1ccccc1 (stereo not given)	> 100 µM (inactive)	> 100 µM (inactive)	> 100 µM (inactive)	> 100 µM (inactive)	> 100 µM (inactive)	> 100 µM (inactive)	> 100	> 100 µM (inactive)	> 100 µM (inactive)	> 100 µM (inactive)	17.3 µM (inactive)	> 100 µM (inactive)	–	> 100 µM (inactive)	–	> 100 µM (inactive)	> 100 µM (inactive)	–	–	–
Cc1cc(N(CCC#N)CCC#N)ccc1/N=N/c1ccc([N+](=O)[O-])cc1	> 100 µM (inactive)	> 100 µM (inactive)	–	23 µM (inactive)	> 100 µM (inactive)	> 100 µM (inactive)	39.4	> 100 µM (inactive)	> 100 µM (inactive)	22 µM (inactive)	18.6 µM (inactive)	> 100 µM (inactive)	> 100 µM (inactive)	44.9 µM (inactive)	32.5 µM (inactive)	> 100 µM (inactive)	25.1 µM (inactive)	–	–	–
Cc1cc(C2CCCCC2)n(O)c(=O)c1 [CICLOPIROX OLAMINE]	7.52 µM (inactive)	1.62 µM (inactive)	3.46 µM (inactive)	3.22 µM (inactive)	9.08 µM (inactive)	4.25 µM (inactive)	4.39	–	21.3 µM (inactive)	11.6 µM (inactive)	0.498 µM (active)	1.1 µM (active)	–	3.56 µM (inactive)	16.5 µM (inactive)	4.04 µM (inactive)	11.9 µM (inactive)	–	–	–
C=CC1(C)/C(=N\O)C(C)(CC)C(=O)N1O (stereo not given)	> 100 µM (inactive)	> 100 µM (inactive)	> 100 µM (inactive)	> 100 µM (inactive)	> 100 µM (inactive)	> 100 µM (inactive)	> 100	> 100 µM (inactive)	> 100 µM (inactive)	> 100 µM (inactive)	> 100 µM (inactive)	> 100 µM (inactive)	–	–	> 100 µM (inactive)	> 100 µM (inactive)	> 100 µM (inactive)	–	–	–
Cc1cc(OCC(O)CO)ccc1-c1ccccc1 (stereo not given)	> 100 µM (inactive)	52.5 µM (inactive)	> 100 µM (inactive)	> 100 µM (inactive)	70.1 µM (inactive)	> 100 µM (inactive)	37.2	> 100 µM (inactive)	> 100 µM (inactive)	> 100 µM (inactive)	54.3 µM (inactive)	35 µM (inactive)	> 100 µM (inactive)	–	21.2 µM (inactive)	80.2 µM (inactive)	–	–	–	–
CN(C)CCn1cnc2sc3ccccc3c21	> 100 µM (inactive)	> 100 µM (inactive)	> 100 µM (inactive)	> 100 µM (inactive)	> 100 µM (inactive)	> 100 µM (inactive)	> 100	95.3 µM (inactive)	> 100 µM (inactive)	> 100 µM (inactive)	> 100 µM (inactive)	> 100 µM (inactive)	40.4 µM (inactive)	–	82.8 µM (inactive)	> 100 µM (inactive)	> 100 µM (inactive)	–	–	–
O=[N+]([O-])c1ccc2nc3ccscc-3c2c1	20.1 µM (inactive)	14.3 µM (inactive)	27.4 µM (inactive)	–	22.6 µM (inactive)	14.7 µM (inactive)	15.2	13 µM (inactive)	6.75 µM (inactive)	6.98 µM (inactive)	7.76 µM (inactive)	5 µM (inactive)	20.9 µM (inactive)	7.08 µM (inactive)	–	9.93 µM (inactive)	18.7 µM (inactive)	–	–	–
NC(=S)N/N=C(\CC1OC(=O)c2ccccc21)c1ccc(Cl)cc1 (stereo not given)	21.9 µM (inactive)	46.7 µM (inactive)	40.3 µM (inactive)	18 µM (inactive)	27.2 µM (inactive)	36.8 µM (inactive)	39.8	36.3 µM (inactive)	–	42.7 µM (inactive)	22.5 µM (inactive)	–	24.4 µM (inactive)	75.3 µM (inactive)	25.1 µM (inactive)	–	27.8 µM (inactive)	–	–	–
NC1(C(=O)O)CCC(C(=O)O)CC1 (stereo not given)	> 100 µM (inactive)	> 100 µM (inactive)	> 100 µM (inactive)	> 100 µM (inactive)	> 100 µM (inactive)	> 100 µM (inactive)	–	> 100 µM (inactive)	> 100 µM (inactive)	> 100 µM (inactive)	> 100 µM (inactive)	> 100 µM (inactive)	> 100 µM (inactive)	> 100 µM (inactive)	> 100 µM (inactive)	> 100 µM (inactive)	> 100 µM (inactive)	–	–	–
CN(C)CC(C)(C)C(=O)/C=C/c1ccccc1	16.3 µM (inactive)	12.8 µM (inactive)	12.9 µM (inactive)	18 µM (inactive)	15.8 µM (inactive)	–	12.6	15.8 µM (inactive)	–	15.8 µM (inactive)	16.3 µM (inactive)	3.39 µM (inactive)	13.9 µM (inactive)	12.2 µM (inactive)	11.9 µM (inactive)	17.6 µM (inactive)	11.2 µM (inactive)	–	–	–
CC(C)(C)c1cc(C2=NN(c3ccccc3)C(c3ccccc3)C2)cc(C(C)(C)C)c1O (stereo not given)	–	35.2 µM (inactive)	> 100 µM (inactive)	> 100 µM (inactive)	> 100 µM (inactive)	> 100 µM (inactive)	> 100	> 100 µM (inactive)	> 100 µM (inactive)	> 100 µM (inactive)	> 100 µM (inactive)	19.1 µM (inactive)	> 100 µM (inactive)	> 100 µM (inactive)	> 100 µM (inactive)	> 100 µM (inactive)	> 100 µM (inactive)	> 100 µM (inactive)	> 100 µM (inactive)	31.5 µM (inactive)
